According to patent US12486269B2 (Aconcagua Bio, Inc., priority 2024, dated 2025):

Assays:
[1] = target: T1, human calcitonin receptor (CTR) (Homo sapiens, UniProt P30988); assay: Calcitonin Receptor (CTR) cAMP Assay; type: cell-based; details: COS7-human CTR Clone #2 stable cell line, cAMP dynamic 2 kit, 30 min; read-out: Calcitonin Receptor cAMP Stimulation Activity: EC50
T1 construct: expressed in transfected cells; host or cells: COS-7 (COS7-human CTR Clone #2)
T1 sequence (P30988 25-474): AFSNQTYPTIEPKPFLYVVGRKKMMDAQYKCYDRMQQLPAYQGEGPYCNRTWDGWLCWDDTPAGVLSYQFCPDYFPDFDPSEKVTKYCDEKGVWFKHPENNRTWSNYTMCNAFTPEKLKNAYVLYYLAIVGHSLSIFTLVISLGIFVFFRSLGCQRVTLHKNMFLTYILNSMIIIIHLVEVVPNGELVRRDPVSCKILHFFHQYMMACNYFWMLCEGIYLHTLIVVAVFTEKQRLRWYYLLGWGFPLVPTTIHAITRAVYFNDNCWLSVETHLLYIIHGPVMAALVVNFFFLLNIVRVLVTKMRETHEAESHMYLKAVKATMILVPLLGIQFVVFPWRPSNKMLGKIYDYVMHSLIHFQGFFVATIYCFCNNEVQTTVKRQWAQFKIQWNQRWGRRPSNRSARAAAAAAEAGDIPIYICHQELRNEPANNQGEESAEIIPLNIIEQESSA
Protocol: (§1) After incubation, the cAMP assay signal was generated using cAMP dynamic 2 kit (Revvity, Cat #62AM4PEC). 10 μL cAMP-d2 working solution was added to each well, followed by 10 μL Anti-cAMP antibody-cryptate working solution which was added to each well using CERTUS FLEX LIQUID […]. The samples were then incubated at room temperature for 1 hour protected from light. the fluorescence was read at 665 and 615 nm with Reader PerkinElmer EnVision 2105. % Activity=100−(mean RLU of test sample−mean RLU of positive control)/(mean RLU of vehicle control−mean RLU of positive control)×100 Calcitonin Receptor (CTR) cAMP Assay
The calcitonin receptor (CTR) belongs to the subfamily of GPCRs known as the secretin or ‘B’ family of GPCRs. Like other class B1 GPCRs, the CT receptor family is canonically coupled to Gs-mediated cAMP production, and measurement of cAMP accumulation has been the primary assay used to determine peptide selectivity and potency.
(§2) To optimize functional activity directed toward Gαs coupling, COS-7 cells were stably transfected with human calcitonin receptor (CTR) to create COS7-human CTR Clone #2 stable cell line. 100×concentration of compound working solutions were prepared with 4-fold serial dilution in 384-well Echo LDV plate (Labcyte, Cat #LP-0200-BC). 200 nL/well 100×concentration of compound working solutions were moved to 384-well white microplate (Perkin Elmer, Cat #6007680) using Labcyte ECHO550. 1×10^5 cells/mL COS7-human CTR Clone #2 cell suspensions prepared with assay buffer [HBSS containing 20 mM HEPES (Gibco, Cat #15630-080), 0.5 mM IBMX (Sigma, Cat #15879) and 0.1% Casein (Sigma, Cat #C4765)], 20 μL cell suspensions were added to each well of previous generated assay plate which already contains 200 nL compound at 100×concentration using ThermoFisher Multidrop Combi (2000 cells/well). Seal the plate and incubate at 37° C. with 5% CO2 for 30 min.
as §1, with “control)×100” for “control)×100 Calcitonin Receptor (CTR) cAMP Assay”

[2] = target: T2, COS-7/AMY3 (human calcitonin receptor (CTR) and RAMP3) (Homo sapiens, UniProt O60896+P30988); assay: Amylin Receptor cAMP Assay II; type: cell-based; details: values marked **: Amylin Receptor cAMP Assay II; COS-7/AMY3 cells, cAMP dynamic 2 kit, 30 min; read-out: Amylin Receptor cAMP Stimulation Activity: EC50
T2 construct: expressed in transfected cells; host or cells: COS-7
T2 sequence (O60896 24-148, one chain of several): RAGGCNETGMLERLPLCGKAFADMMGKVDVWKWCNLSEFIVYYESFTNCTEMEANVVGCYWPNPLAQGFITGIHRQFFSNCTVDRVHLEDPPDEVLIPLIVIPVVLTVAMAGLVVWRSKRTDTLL
Excerpt: AMYRs are heterodimers of the class B calcitonin (CT) G-protein-coupled receptor (CTR) and receptor activity-modifying proteins (RAMPs). All three RAMPs can interact with the CTR and form AMY1, AMY2, AMY3 with RAMP1, RAMP2 and RAMP3, respectively. Like other class B1 GPCRs, the CT receptor family is canonically coupled to Gs-mediated cAMP production, and measurement of cAMP accumulation has been the primary assay used to determine peptide selectivity and potency.
as §2, with “and RAMP3, simultaneously.” for “to create COS7-human CTR Clone #2 stable cell line.”, “COS-7/AMY3” for “COS7-human CTR Clone #2”
as §1

## N#Cc1ccc(Cn2c(=O)oc3cc(-c4c(-c5n[nH]c(=O)o5)c(CCc5ccc(F)cc5)nc5c4c(=O)n4n5CCC4)ccc32)cc1F [Compound 162, 2-fluoro-4-((6-(2-(4-fluorophenethyl)-5-oxo-3-(5-oxo-4,5-dihydro-1,3,4-oxadiazol-2-yl)-8,9-dihydro-5H,7H-pyrazolo[1′,2′:1,2]pyrazolo[3,4-b]pyridin-4-yl)-2-oxobenzo[d]oxazol-3(2H)-yl)methyl)benzonitrile]
[1]
  EC50: 0.157 nM
[2]
  EC50: 3.71 nM

## CC(C)C1CS(=O)(=O)c2c1nc(CCc1ccc(F)cc1)c(-c1n[nH]c(=O)o1)c2-c1ccc2c(c1)oc(=O)n2Cc1ccc(C#N)cn1 (stereo not drawn) [Compound 163, 6-((6-(5-(4-fluorophenethyl)-3-isopropyl-1,1-dioxido-6-(5-oxo-4,5-dihydro-1,3,4-oxadiazol-2-yl)-2,3-dihydrothieno[3,2-b]pyridin-7-yl)-2-oxobenzo[d]oxazol-3(2H)-yl)methyl)nicotinonitrile]
[1]
  EC50: 0.588 nM
[2]
  EC50: 11.2 nM

## O=C1c2c(nc(CCc3ccc(F)cc3)c(-c3n[nH]c(=O)o3)c2-c2ccc3c(c2)oc(=O)n3Cc2ccc(F)cn2)[C@@H]2CCCN12 [Compound 164, (S)-6-(2-(4-fluorophenethyl)-5-oxo-3-(5-oxo-4,5-dihydro-1,3,4-oxadiazol-2-yl)-7,8,9,9a-tetrahydro-5H-pyrido[2,3-a]pyrrolizin-4-yl)-3-((5-fluoropyridin-2-yl)methyl)benzo[d]oxazol-2(3H)-one]
[1]
  EC50: 4.28 nM
[2]
  EC50: 39.9 nM

## N#Cc1cc2c(cc1F)[C@H](Nc1nccc3cc(-c4c5c(nc(CCc6ccc(F)cc6)c4-c4n[nH]c(=O)o4)[C@@H]4CCCN4C5=O)sc13)CC2 [Compound 165, (R)-6-fluoro-1-((2-((S)-2-(4-fluorophenethyl)-5-oxo-3-(5-oxo-4,5-dihydro-1,3,4-oxadiazol-2-yl)-7,8,9,9a-tetrahydro-5H-pyrido[2,3-a]pyrrolizin-4-yl)thieno[2,3-c]pyridin-7-yl)amino)-2,3-dihydro-1H-indene-5-carbonitrile]
[1]
  EC50: 0.539 nM
[2]
  EC50: 6.73 nM

## O=C1c2c(nc(CCc3ccc(F)cc3)c(-c3n[nH]c(=O)o3)c2-c2cc3ccnc(N[C@@H]4CCc5cc(F)c(F)cc54)c3s2)[C@@H]2CCCN12 [Compound 166, 5-((S)-4-(7-(((R)-5,6-difluoro-2,3-dihydro-1H-inden-1-yl)amino)thieno[2,3-c]pyridin-2-yl)-2-(4-fluorophenethyl)-5-oxo-7,8,9,9a-tetrahydro-5H-pyrido[2,3-a]pyrrolizin-3-yl)-1,3,4-oxadiazol-2(3H)-one]
[1]
  EC50: 0.0875 nM
[2]
  EC50: 1.38 nM

## COc1c(F)ccc2c1CC[C@H]2Nc1nccc2cc(-c3c4c(nc(CCc5ccc(F)cc5)c3-c3n[nH]c(=O)o3)[C@@H]3CCCN3C4=O)sc12 [Compound 167, 5-((S)-4-(7-(((R)-5-fluoro-4-methoxy-2,3-dihydro-1H-inden-1-yl)amino)thieno[2,3-c]pyridin-2-yl)-2-(4-fluorophenethyl)-5-oxo-7,8,9,9a-tetrahydro-5H-pyrido[2,3-a]pyrrolizin-3-yl)-1,3,4-oxadiazol-2(3H)-one]
[1]
  EC50: 0.13 nM
[2]
  EC50: 4.38 nM

## O=C1c2c(nc(CCc3ccc(F)cc3)c(-c3n[nH]c(=O)o3)c2-c2cc3ccnc(N[C@@H]4CCc5c4ccc(F)c5Cl)c3s2)[C@@H]2CCCN12 [Compound 168, 5-((S)-4-(7-(((R)-4-chloro-5-fluoro-2,3-dihydro-1H-inden-1-yl)amino)thieno[2,3-c]pyridin-2-yl)-2-(4-fluorophenethyl)-5-oxo-7,8,9,9a-tetrahydro-5H-pyrido[2,3-a]pyrrolizin-3-yl)-1,3,4-oxadiazol-2(3H)-one]
[1]
  EC50: 0.341 nM
[2]
  EC50: 15.3 nM

## O=C1c2c(nc(CCc3ccc(F)cc3)c(-c3n[nH]c(=O)o3)c2-c2cc3ccnc(N[C@@H]4COc5ccccc54)c3s2)[C@@H]2CCCN12 [Compound 169, 5-((S)-4-(7-(((S)-2,3-dihydrobenzofuran-3-yl)amino)thieno[2,3-c]pyridin-2-yl)-2-(4-fluorophenethyl)-5-oxo-7,8,9,9a-tetrahydro-5H-pyrido[2,3-a]pyrrolizin-3-yl)-1,3,4-oxadiazol-2(3H)-one]
[1]
  EC50: 10.2 nM
[2]
  EC50: 254 nM

## O=C1c2c(nc(CCc3ccc(F)cc3)c(-c3n[nH]c(=O)o3)c2-c2cc3ccnc(N[C@@H]4CCOc5ccccc54)c3s2)[C@@H]2CCCN12 [Compound 170]
[1]
  EC50: 1.19 nM
[2]
  EC50: 33.1 nM

## COc1cccc2c1CC[C@H]2Nc1nccc2cc(-c3c4c(nc(CCc5cccc(C(F)(F)F)c5)c3-c3n[nH]c(=O)o3)[C@@H]3CCCN3C4=O)sc12 [Compound 171, 5-((S)-4-(7-(((R)-4-methoxy-2,3-dihydro-1H-inden-1-yl)amino)thieno[2,3-c]pyridin-2-yl)-5-oxo-2-(3-(trifluoromethyl)phenethyl)-7,8,9,9a-tetrahydro-5H-pyrido[2,3-a]pyrrolizin-3-yl)-1,3,4-oxadiazol-2(3H)-one]
[1]
  EC50: 1.52 nM
[2]
  EC50: 71.4 nM

## COc1cccc2c1CC[C@H]2Nc1nccc2cc(-c3c4c(nc(CCC5CCCCC5)c3-c3n[nH]c(=O)o3)[C@@H]3CCCN3C4=O)sc12 [Compound 172, 5-((S)-2-(2-cyclohexylethyl)-4-(7-(((R)-4-methoxy-2,3-dihydro-1H-inden-1-yl)amino)thieno[2,3-c]pyridin-2-yl)-5-oxo-7,8,9,9a-tetrahydro-5H-pyrido[2,3-a]pyrrolizin-3-yl)-1,3,4-oxadiazol-2(3H)-one]
[1]
  EC50: 2.06 nM
[2]
  EC50: 51.1 nM

## COc1c(Cl)ccc2c1CC[C@H]2Nc1nccc2cc(-c3c4c(nc(CCc5ccc(F)cc5)c3-c3n[nH]c(=O)o3)[C@@H]3CCCN3C4=O)sc12 [Compound 173, 5—((S)-4-(7-(((R)-5-chloro-4-methoxy-2,3-dihydro-1H-inden-1-yl)amino)thieno[2,3-c]pyridin-2-yl)-2-(4-fluorophenethyl)-5-oxo-7,8,9,9a-tetrahydro-5H-pyrido[2,3-a]pyrrolizin-3-yl)-1,3,4-oxadiazol-2(3H)-one]
[1]
  EC50: 0.788 nM
[2]
  EC50: 16.9 nM
